The test system of series [1] is C3H 10T1/2(clone 8) cells. Put plainly: In vitro transformation assay (MCA-induced). The class given is cell-based. The settings on record: MCA 1 μg/ml 24 hr, conjugates 1.0 μg/ml first three weeks. The method, then:
Transformation assays were carried out using C3H 10T1/2(clone 8) cells according to the published recommendations [Reznikoff, C. A., et al., Cancer. Res., 33:3239-3249 (1973); Reznikoff, C. A., et al., Cancer. Res., 33:3231-3238 (1973)]. Stock cultures of mycoplasma-free cells were maintained by passing 50,000 cells per 75 cm^2 flask every seven days. Using this schedule, the cells were always passed approximately 2 days before reaching confluence. The stock culture was grown in Eagle's basal medium supplemented with 10% FBS, penicillin (100 units), and streptomycin (100 μg) and used for the transformation assays at passages of 9 to 14. The cells were passed by treating the stock cells with trypsin (0.1%) in PBS for 5 min and quenching the trypsin with 5 ml of the medium. This procedure was adapted to minimize spontaneous transformation in the stock cultures and maximize the plating efficiency in the petri dishes. The FBS stock used in the cultures was pre-screened to ensure that the serum was able to support the expression and the growth of the transformed cells.
For the transformation assays, C3H 10T1/2 cells (1000/dish) were seeded into 60 mm petri dishes and allowed to grow in a humidified 5% CO2 atmosphere in Eagle's basal medium, supplemented with 10% FBS, penicillin (100 units), and streptomycin (100 μg), for 24 hr. Subsequently, the cells were initiated by treatment with 25 μl of the 3-methylcholanthrene (MCA) in acetone stock solution ([…]) to a final concentration of 1 μg/ml of MCA (5 μg/5 ml). The cells were allowed to grow in the presence of the carcinogen or solvent for 24 hr, and the medium in each dish was then replaced with fresh medium containing no carcinogen or solvent. The medium in the dishes was replaced twice per week for the first two weeks of the assay, and thereafter once a week for the remainder four weeks of the assay. In the experiments designed to determine the transformation inhibitory activity of the conjugates, the cells were maintained in the medium containing the conjugates (1 μg/ml) for the first three weeks of the assay; thereafter, the cells were maintained in medium containing no added conjugates.
Six weeks after the carcinogen treatment, the cells were inspected under a microscope for adherence to the culture dishes and were washed with PBS and then fixed in 100% methanol. The fixed monolayers were then stained with Giemsa stain. Twenty dishes per group were treated in each experiment. In addition to the test groups, all the transformation assays contained at least three other groups: negative control (not treated with carcinogen or solvent), acetone control (treated with 25 μl of acetone), and positive control [treated with MCA (1 μg/ml) in 25 μl of acetone]. The transformed foci (>3 mm in diameter) in the plates were studied under a microscope and classified according to published guidelines as types I, II, or III [Landolph, J. R., Transfomatin assay of established cell lines: Mechanism and Application (ed. Kakunaga, T., and Yamasaki, H.) IARC Scientific Publications, Lyon, France pp. 185-201 (1985)]. Briefly, type III foci were dense, multilayered, basophilic, areas of cell growth which stained to a deep blue color with Giemsa and had rough crisscrossed edges. Type II foci were also dense, multilayered, areas of cell growth, but were stained to a purple color with Giemsa and had smoother, more defined edges compared to Type III foci. Type I foci were not scored in the assay.
BBI, either as the free protein or in conjugated form to palmitic or oleic acid, was added to the cultures at 1.0 μg/ml for the first three weeks of the transformation assay period starting immediately after the MCA treatment. MCA-treated cells were exposed to 3-methylcholanthrene, dissolved in 25 μl of acetone, at a concentration of 1 μg/ml for 24 hr. Acetone-treated cells were exposed to 25 μl of acetone for 24 hr only. […]

A further series concerns C3H 10T1/2 cells. As to the kind of experiment: Plating efficiency. The class given is cell-based. To be noted: 200 cells/dish, 10 days, treated as in the transformation assay. The method, then: The plating efficiency (PE) of the cells was also studied in conjunction with each of the transformation assays. To determine the PE of the cells in the different treatment groups, cells (200 cells/dish) were seeded into three 60-mm petri dishes per experiment group and treated in the identical manner as the transformation assay cells. The cells in these assays were terminated at 10 days, fixed with 100% methanol, and stained with giemsa; the colonies of 50 cells or more visible under a microscope were then counted. The plating efficiency is defined as the (number of colonies/number of cells seeded)×100%.

Experimental findings from patent publication US6093692A, “Method and compositions for lipidization of hydrophilic molecules” (The University of Southern California, priority 1997, dated 2000) are described below.

For the molecule `Cc1ccc2cc3c(ccc4ccccc43)c3c2c1CC3` [MCA, 3-methylcholanthrene, reference compound], the “Transformed foci” value in series [1] is recorded as 6 out of the 19 dishes scored contained type III foci. For the same molecule, in series [1] (scored at six weeks), the “Fraction of dishes containing transformed foci” value is given as 0.32 and the “No. of dishes with transformed foci/No. of dishes” value was 6/19. In the series on C3H 10T1/2 cells, the “Plating Efficiency” value is listed as 21 ± 3.0%.
